In PMC11086599, “Cyanobacterial α-carboxysome carbonic anhydrase is allosterically regulated by the Rubisco substrate RuBP” (Science Advances, 2024):
Substitutions are numbered along the chain they refer to. Each block holds one molecule with its values, some of them ahead of it.

How the values were obtained:
HnCsoSCA = biological target: T1, HnCsoSCA (Halothiobacillus neapolitanus, UniProt O85042); conditions: labelled compound; 2.7 mM NaH13C18O3, 50 mM EPPS-NaOH, 20 mM MgCl2, pH 7.8, DTNB; no RuBP needed
T1 construct: gene csoS3

CyCsoSCA [1] = biological target: T2, CyCsoSCA (Cyanobium sp. PCC 7001, UniProt Z9Q2N2GQP4, K469D); test: membrane inlet mass spectrometry […]-exchange CA assay; format: biochemical; conditions: 100 μM RuBP; allosteric activator; same buffer
T2 construct: first 116 residues (disordered N-terminal tail) removed; pHue His-ubiquitin fusion, tag cleaved with USP2; expressed in E. coli; homohexamer (trimer of dimers)
T2 sequence (Z9Q2N2GQP4 117-583 K469D): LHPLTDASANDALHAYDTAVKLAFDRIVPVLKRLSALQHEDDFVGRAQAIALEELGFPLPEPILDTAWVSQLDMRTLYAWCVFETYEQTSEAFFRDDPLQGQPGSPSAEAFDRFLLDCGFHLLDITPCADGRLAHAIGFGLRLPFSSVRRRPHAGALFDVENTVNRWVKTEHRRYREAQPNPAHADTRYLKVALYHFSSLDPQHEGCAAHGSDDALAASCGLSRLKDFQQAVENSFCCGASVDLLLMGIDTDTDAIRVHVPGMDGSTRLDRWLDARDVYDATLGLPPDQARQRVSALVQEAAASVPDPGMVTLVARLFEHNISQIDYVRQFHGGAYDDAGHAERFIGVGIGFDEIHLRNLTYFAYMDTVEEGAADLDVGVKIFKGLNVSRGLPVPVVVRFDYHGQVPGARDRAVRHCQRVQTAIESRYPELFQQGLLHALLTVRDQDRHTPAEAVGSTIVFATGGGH

CyCsoSCA [2] = biological target: T3, CyCsoSCA (Cyanobium sp. PCC 7001, UniProt Z9Q2N2GQP4, T477A); test: as above; format: biochemical; conditions: 100 μM RuBP; allosteric activator; same buffer
T3 construct: first 116 residues (disordered N-terminal tail) removed; pHue His-ubiquitin fusion, tag cleaved with USP2; expressed in E. coli; homohexamer (trimer of dimers)
T3 sequence (Z9Q2N2GQP4 117-583 T477A): T2 sequence (Z9Q2N2GQP4 117-583 K469D) with D353K, T361A

CyCsoSCA [3] = biological target: T4, CyCsoSCA (Cyanobium sp. PCC 7001, UniProt Z9Q2N2GQP4); test: membrane inlet mass spectrometry […]-exchange CA assay; Hill fit; format: biochemical; conditions: allosteric activator of bicarbonate dehydration/CO2 hydration; sigmoidal, Hill slope 2.214; 2.7 mM labelled bicarbonate, 50 mM EPPS-NaOH, 20 mM MgCl2, pH 7.8; site near dimer interface (R266, K469, R5)
T4 construct: first 116 residues (disordered N-terminal tail) removed; pHue His-ubiquitin fusion, tag cleaved with USP2; expressed in E. coli; homohexamer (trimer of dimers)
T4 sequence (Z9Q2N2GQP4 117-583): T2 sequence (Z9Q2N2GQP4 117-583 K469D) with D353K

CyCsoSCA [4] = biological target: T5, CyCsoSCA (Cyanobium sp. PCC 7001, UniProt Z9Q2N2GQP4, H472Q); test: membrane inlet mass spectrometry […]-exchange CA assay; format: biochemical; conditions: 100 μM RuBP; allosteric activator; same buffer
T5 construct: first 116 residues (disordered N-terminal tail) removed; pHue His-ubiquitin fusion, tag cleaved with USP2; expressed in E. coli; homohexamer (trimer of dimers)
T5 sequence (Z9Q2N2GQP4 117-583 H472Q): T2 sequence (Z9Q2N2GQP4 117-583 K469D) with D353K, H356Q

[5] = biological target: Cyanobium sp. PCC7001 CsoSCA (α-carboxysome carbonic anhydrase), truncated form lacking the 116-residue disordered N-terminal region (Cyanobium sp. PCC7001); test: SEC; size exclusion chromatography of the purified protein in solution (fig. S13); conditions of this run not told in the main text
[6] = biological target: Cyanobium sp. PCC7001 CsoSCA (α-carboxysome carbonic anhydrase), truncated form lacking the 116-residue disordered N-terminal region (Cyanobium sp. PCC7001); test: crystal structure; CyCsoSCA co-crystallised with RuBP (RuBP:CyCsoSCA 10:1), 7 mg/ml protein, 0.2 M ammonium sulfate, 0.1 M bis-tris pH 6.5, 21% PEG 3350, 15% ethylene glycol; one hexamer in the asymmetric unit, P212121
[7] = biological target: the molecule itself; test: SEC; size exclusion chromatography of the purified protein in solution (fig. S13); conditions of this run not told in the main text

Molecule: O=C(O)O [HCO3^−]
membrane inlet mass spectrometry 18O-exchange CA assay (HnCsoSCA): HCO3^− dehydration activity was recorded using MIMS after the addition of CsoSCA variants

EC50 (CyCsoSCA [3]): 18 ± 2 µM
Molecule: O=C(COP(=O)(O)O)[C@H](O)[C@H](O)COP(=O)(O)O [RuBP]
membrane inlet mass spectrometry 18O-exchange CA assay (CyCsoSCA [1]): a minor increase in activity upon addition of the ligand
membrane inlet mass spectrometry 18O-exchange CA assay (CyCsoSCA [2]): high levels of ligand-independent activity and a notable increase with RuBP
membrane inlet mass spectrometry 18O-exchange CA assay (CyCsoSCA [4]): H472Q mutation (targeted approach) and T477A (random approach) also resulted in a biphasic activity profile

stoichiometry N [5]: 6
stoichiometry N [6]: 6
Molecule: Cyanobium sp. PCC7001 CsoSCA (α-carboxysome carbonic anhydrase), truncated form lacking the 116-residue disordered N-terminal region (enzyme)

B1: Halothiobacillus neapolitanus CsoSCA (α-carboxysome carbonic anhydrase), truncated form lacking the first 49 residues (enzyme, UniProt O85042 50-514, looked up)
chain: RHPLTDLEANEQLGRCEDSVKNRFDRVIPFLQVVAGIPLGLDYVTRVQELAQSSLGHTLPEELLKDNWISGHNLKGIFGYATAKALTAATEQFSRKIMSEKDDSASAIGFFLDCGFHAVDISPCADGRLKGLLPYILRLPLTAFTYRKAYAGSMFDIEDDLAQWEKNELRRYREGVPNTADQPTRYLKIAVYHFSTSDPTHSGCAAHGSNDRAALEAALTQLMKFREAVENAHCCGASIDILLIGVDTDTDAIRVHIPDSKGFLNPYRYVDNTVTYAQTLHLAPDEARVIIHEAILNANRSDGWAKGNGVASEGMRRFIGQLLINNLSQIDYVVNRHGGRYPPNDIGHAERYISVGDGFDEVQIRNLAYYAHLDTVEENAIDVDVGIKIFTKLNLSRGLPIPIAIHYRYDPNVPGSRERTVVKARRIYNAIKERFSSLDEQNLLQFRLSVQAQDIGSPIEEVASA
notes: CsoSCA carbonic anhydrase of Halothiobacillus neapolitanus, O85042 with the first 49 residues (disordered N-terminal region) removed; codon-optimised for E. coli; also called HnCsoSCA; wild-type HnCsoSCA; source: E. coli NEB T7 Express pLysY, pHue plasmid, purified (HisTrap, USP2 cleavage, second HisTrap, SEC on Superdex 200)
stoichiometry N [7]: 6
